Columns and labels:
Assay type in all cases: physicochemical
[1] = Solid-state photostability
Description: The solid-state photostability of EP-1 trihydrate (x is 3) was assessed upon exposure to UV/Vis light according to ICH guidelines. Loss of claim %, loss of area %, and degradates were evaluated versus dark control samples.
Solid-State Photostability: Weighed ˜5 mg Form B into glass vials with 2 vials covered with foil as the controls. Put these 2 samples with their controls into chamber and expose them to Vis (10 Kilo lux) for 120 hrs followed by UV (10 W/m^2) for 20 hrs (per ICH guidelines). At the end of Vis, take 1 sample and 1 control out for analysis and the others were taken out after both Vis and UV exposure.

[2] = Slurry experiments using Form B and Form C (relative stability); details: RT
Description: The relative stability between Form B and Form C was investigated as a function of water activity at room temperature using ACN/H2O. In general, about 10-30 mg Form B was added to a 5-ml glass vial with 0.5 ml corresponding solvents to get suspensions at room temperature. Then 10-30 mg Form C was added to the suspensions which were kept stirring for 24 h. The water activity was calculated using the UNIFAC model.

[3] = Equilibrium solubility in organic solvents; details: RT; for solubility at 24 h: organic solvent or mixture, thermodynamic from solid
Description: Approximately 10 mg of Form B was weighed into a 1-ml glass vial followed by addition of 0.5 ml relevant media. Each sample was continuously stirred using a magnetic stir bar at 25° C. for 24 h. The suspension was then filtered using a nylon membrane with a pore diameter of 0.22 μm. The filtrates were diluted for HPLC analysis and final pH was measured. The solid residue of each sample was collected for XRPD analysis. The solubility of Form B was also determined in commonly used organic solvents (diluents or HPLC mobile phase). The solubility data summarized in Table 10 indicates Form B is quite soluble in MeOH, EtOH, and IPA.

Solution stability = experiment: Solution stability
Description: 0.1 mg/ml solutions of Form B were prepared in five buffers, including 0.01N HCl (pH 2), 50 mM sodium citrate (pH 4), 50 mM sodium citrate (pH 6), 50 mM sodium phosphate (pH 8), and 50 mM sodium carbonate (pH 10). Methanol was added as a co-solvent to dissolve Form B in buffers (i.e., 10% (v/v) in pH 2, 4, and 6 buffers, 20% (v/v) in pH 8 buffer, and 30% (v/v) in pH 10 buffer). Each buffer solution containing Form B was stored at 3 different temperatures: 25° C., 37° C., and 50° C. Aliquots were taken for HPLC analysis after 1 day and 7 days. pH values were also measured before and after the stability experiments.

[4] = Bulk control (covered with foil), Vis Stability (1.2 Mil lux-hours)
[5] = Bulk control (covered with foil), Vis-UV stability (1.2 Mil lux-hours + 200 Watt-hours/m^2)
[6] = Bulk, Vis Stability (1.2 Mil lux-hours)
[7] = Bulk, Vis-UV stability (1.2 Mil lux-hours + 200 Watt-hours/m^2)

% area [1, 4]: 99.7% | % claim [1, 4]: 100.0% | % area [1, 5]: 99.8% | % claim [1, 5]: 100.0% | % area [1, 6]: 99.8% | % claim [1, 6]: 101.1% | % area [1, 7]: 99.8% | % claim [1, 7]: 99.6% | water activity at which Form B is thermodynamically more stable than Form C [2]: ≥ 0.30 | Remaining Solid ([3]; Acetone): Form B | Remaining Solid ([3]; Acetonitrile): Form B | Remaining Solid ([3]; Ethanol): No solid obtained | Remaining Solid ([3]; Isopropanol): No solid obtained | solubility (in words) ([3]; MeOH, EtOH, and IPA): quite soluble | Remaining Solid ([3]; Methanol): No solid obtained | solubility at 24 h ([3]; Acetone): 23.9 mg/mL | solubility at 24 h ([3]; Acetonitrile): 1.5 mg/mL | solubility at 24 h ([3]; Ethanol): > 87 mg/mL | solubility at 24 h ([3]; Isopropanol): > 129 mg/mL | solubility at 24 h ([3]; Methanol): > 200 mg/mL | % area (Solution stability; pH 2, 25° C., 24 h): 98.7% | % claim (Solution stability; pH 2, 25° C., 24 h): 97.1% | pH (Solution stability; pH 2, 25° C., 24 h): 2.1 | % area (Solution stability; pH 2, 25° C., 7 days): 98.5% | % claim (Solution stability; pH 2, 25° C., 7 days): 99.1% | pH (Solution stability; pH 2, 25° C., 7 days): 2.1 | % area (Solution stability; pH 2, 37° C., 24 h): 98.7% | % claim (Solution stability; pH 2, 37° C., 24 h): 96.8% | pH (Solution stability; pH 2, 37° C., 24 h): 2.1 | % area (Solution stability; pH 2, 37° C., 7 days): 98.4% | % claim (Solution stability; pH 2, 37° C., 7 days): 97.5% | pH (Solution stability; pH 2, 37° C., 7 days): 2.1 | % area (Solution stability; pH 2, 50° C., 24 h): 98.3% | % claim (Solution stability; pH 2, 50° C., 24 h): 97.0% | pH (Solution stability; pH 2, 50° C., 24 h): 2.1 | % area (Solution stability; pH 2, 50° C., 7 days): 98.4% | % claim (Solution stability; pH 2, 50° C., 7 days): 97.0% | pH (Solution stability; pH 2, 50° C., 7 days): 2.1 | degradation in solution (Solution stability; pH 2-10 buffers, 25-50° C., up to 7 days): less than 5% | % area (Solution stability; pH 4, 25° C., 24 h): 99.4% | % claim (Solution stability; pH 4, 25° C., 24 h): 97.4% | pH (Solution stability; pH 4, 25° C., 24 h): 4.2 | % area (Solution stability; pH 4, 25° C., 7 days): 99.6% | % claim (Solution stability; pH 4, 25° C., 7 days): 100.2% | pH (Solution stability; pH 4, 25° C., 7 days): 4.2 | % area (Solution stability; pH 4, 37° C., 24 h): 99.4% | % claim (Solution stability; pH 4, 37° C., 24 h): 97.6% | pH (Solution stability; pH 4, 37° C., 24 h): 4.1 | % area (Solution stability; pH 4, 37° C., 7 days): 99.5% | % claim (Solution stability; pH 4, 37° C., 7 days): 99.0% | pH (Solution stability; pH 4, 37° C., 7 days): 4.1 | % area (Solution stability; pH 4, 50° C., 24 h): 99.4% | % claim (Solution stability; pH 4, 50° C., 24 h): 97.6% | pH (Solution stability; pH 4, 50° C., 24 h): 4.1 | % area (Solution stability; pH 4, 50° C., 7 days): 99.5% | % claim (Solution stability; pH 4, 50° C., 7 days): 98.7% | pH (Solution stability; pH 4, 50° C., 7 days): 4.2 | % area (Solution stability; pH 6, 25° C., 24 h): 99.2% | % claim (Solution stability; pH 6, 25° C., 24 h): 98.0% | pH (Solution stability; pH 6, 25° C., 24 h): 6.2 | % area (Solution stability; pH 6, 25° C., 7 days): 99.5% | % claim (Solution stability; pH 6, 25° C., 7 days): 100.0% | pH (Solution stability; pH 6, 25° C., 7 days): 6.2 | % area (Solution stability; pH 6, 37° C., 24 h): 99.3% | % claim (Solution stability; pH 6, 37° C., 24 h): 97.9% | pH (Solution stability; pH 6, 37° C., 24 h): 6.2 | % area (Solution stability; pH 6, 37° C., 7 days): 99.4% | % claim (Solution stability; pH 6, 37° C., 7 days): 99.0% | pH (Solution stability; pH 6, 37° C., 7 days): 6.3 | % area (Solution stability; pH 6, 50° C., 24 h): 99.3% | % claim (Solution stability; pH 6, 50° C., 24 h): 98.1% | pH (Solution stability; pH 6, 50° C., 24 h): 6.2 | % area (Solution stability; pH 6, 50° C., 7 days): 99.5% | % claim (Solution stability; pH 6, 50° C., 7 days): 98.9% | pH (Solution stability; pH 6, 50° C., 7 days): 6.2 | % area (Solution stability; pH 8, 25° C., 24 h): 99.2% | % claim (Solution stability; pH 8, 25° C., 24 h): 98.0% | pH (Solution stability; pH 8, 25° C., 24 h): 8.2 | % area (Solution stability; pH 8, 25° C., 7 days): 99.5% | % claim (Solution stability; pH 8, 25° C., 7 days): 99.8% | pH (Solution stability; pH 8, 25° C., 7 days): 8.2 | % area (Solution stability; pH 8, 37° C., 24 h): 99.5% | % claim (Solution stability; pH 8, 37° C., 24 h): 98.4% | pH (Solution stability; pH 8, 37° C., 24 h): 8.2 | % area (Solution stability; pH 8, 37° C., 7 days): 99.5% | % claim (Solution stability; pH 8, 37° C., 7 days): 99.3% | pH (Solution stability; pH 8, 37° C., 7 days): 8.3 | % area (Solution stability; pH 8, 50° C., 24 h): 99.5% | % claim (Solution stability; pH 8, 50° C., 24 h): 98.0% | pH (Solution stability; pH 8, 50° C., 24 h): 8.3 | % area (Solution stability; pH 8, 50° C., 7 days): 99.5% | % claim (Solution stability; pH 8, 50° C., 7 days): 98.8% | pH (Solution stability; pH 8, 50° C., 7 days): 8.3 | % area (Solution stability; pH 10, 25° C., 24 h): 99.4% | % claim (Solution stability; pH 10, 25° C., 24 h): 98.0% | pH (Solution stability; pH 10, 25° C., 24 h): 10.9 | % area (Solution stability; pH 10, 25° C., 7 days): 99.4% | % claim (Solution stability; pH 10, 25° C., 7 days): 99.7% | pH (Solution stability; pH 10, 25° C., 7 days): 10.9 | % area (Solution stability; pH 10, 37° C., 24 h): 99.4% | % claim (Solution stability; pH 10, 37° C., 24 h): 98.2% | pH (Solution stability; pH 10, 37° C., 24 h): 10.9 | % area (Solution stability; pH 10, 37° C., 7 days): 99.4% | % claim (Solution stability; pH 10, 37° C., 7 days): 99.0% | pH (Solution stability; pH 10, 37° C., 7 days): 10.9 | % area (Solution stability; pH 10, 50° C., 24 h): 99.5% | % claim (Solution stability; pH 10, 50° C., 24 h): 97.9% | pH (Solution stability; pH 10, 50° C., 24 h): 11.0 | % area (Solution stability; pH 10, 50° C., 7 days): 99.4% | % claim (Solution stability; pH 10, 50° C., 7 days): 98.9% | pH (Solution stability; pH 10, 50° C., 7 days): 10.9
SMILES: CC(C)N(C[C@H]1O[C@@H](n2cnc3c(N)ncnc32)[C@H](O)[C@@H]1O)[C@H]1C[C@@H](CCc2nc3cc(C(C)(C)C)ccc3[nH]2)C1 [Form B, (2R,3R,4S,5R)-2-(6-amino-9H-purin-9-yl)-5-((((1r,3S)-3-(2-(5-(tert-butyl)-1H-benzo[d]imidazol-2-yl)ethyl)cyclobutyl)(isopropyl)amino)methyl)tetrahydrofuran-3,4-diol trihydrate]
solid-state photostability (in words) ([1]; bulk, full ICH photostability exposure): stable upon exposure to full ICH photostability requirement

Source: patent US11753433B2, “Methods of synthesizing substituted purine compounds” (Epizyme, Inc., priority 2013, dated 2023)
